Experiments:
[1] = Body weight and general condition in the U251 study; assay type: in vivo, mouse (BALB/c nude); settings: 15mg/Kg intraperitoneal daily for 4 weeks
Protocol: The relationship between body weight change and the dosing regimen is recorded.Survival and health status are also monitored, including activity levels and food intake during the dosing period. • c) Tumor and Organ Imaging: At the end of the dosing period, mice are euthanized, and their brain, heart, liver, spleen, lungs, and kidneys are excised.

U251-RFP human glioma = assay: In-vivo efficacy study in the U251-RFP human glioma orthotopic mouse model (drug of Example 9); parameters: species or system mouse (BALB/c nude); settings: 15mg/Kg intraperitoneal daily for 4 weeks
Text: 2.Dosing regimen: Table 41

## Cn1nnc2c(C(N)=O)ncn2c1=O [Temozolomide]
[1]
  Body weight change on Day 27 compared to pre-dosing: +12%
U251-RFP human glioma; Day 6
  Tumor growth inhibition rate (TGI, %) at different days post-inoculation: 9.9%
U251-RFP human glioma; Day 10
  Tumor growth inhibition rate (TGI, %) at different days post-inoculation: 13.2%
U251-RFP human glioma; Day 13
  Tumor growth inhibition rate (TGI, %) at different days post-inoculation: 39.6%
U251-RFP human glioma; Day 17
  Tumor growth inhibition rate (TGI, %) at different days post-inoculation: 65.6%
U251-RFP human glioma; Day 20
  Tumor growth inhibition rate (TGI, %) at different days post-inoculation: 73.7%
U251-RFP human glioma; Day 24
  Tumor growth inhibition rate (TGI, %) at different days post-inoculation: 73.7%
U251-RFP human glioma; Day 27
  Tumor growth inhibition rate (TGI, %) at different days post-inoculation: 74.2%
U251-RFP human glioma; end of dosing period
  Tumor weight: 0.002 ± 0.001 g
U251-RFP human glioma; tumor weight inhibition rate
  IRTW%: 98.34%

— patent publication EP4744680A1, “TARGETED CHEMICAL DRUG AND PREPARATION METHOD THEREFOR, PHARMACEUTICAL COMPOSITION, AND USE OF TARGETED CHEMICAL DRUG” (Bai Yao Zhi Da (Beijing) Nanobio Technology Co., Ltd., priority 2023, dated 2025)
